Experimental data from patent publication US20250154124A1, “PROCESSES FOR THE PREPARATION OF N-(1-METHYLCYCLOPROPYL)-2-(3-PYRIDINYL)-2H-INDAZOLE-4-CARBOXAMIDE AND INTERMEDIATES THEREOF” (FMC CORPORATION, priority 2022, published 2025).

Experiments:
[1] = Stable polymorph form screen (slurry experiments); assay type: physicochemical; details: between 2° C. and 73° C.
Protocol: Slurry experiments were conducted to identify the stable form at various conditions. In these experiments, saturated solutions in various solvents containing excess undissolved solids (starting with Form A+minor Form B) were stirred for extended durations. Slurries at room temperature (RT) and 2-8° C. were typically conducted for approximately 2 weeks, while slurries at 72-73° C. were stirred for a shorter duration (1 day) to minimize the potential for decomposition. […] The results are shown in the table 12 where the time and temperatures are approximate.

[2] = Form A and Form B interconversion (competitive) slurries; assay type: physicochemical; details: between 2° C. and 72° C.
Protocol: Relative thermodynamic stabilities of anhydrous/non-solvated Forms A and B were studied at 2-8° C., room temperature (RT) and at 71-72° C. via interconversion (competitive) slurries. In these slurries, a given solvent system was pre-saturated with compound 092 (Form A+minor Form B) at the stated temperature, and a portion of the liquid phase was filtered into a mixture of solids containing relatively equal amounts of Form A and Form B. Interconversion slurries at 2-8° C. and RT were allowed to stir for 22 days, while slurries at 71-72° C. stirred for shorter duration (2-4 days). […] The results are reported in table 13 below where: liquid phase for each slurry was pre-saturated using as-received Form A+minor Form B; solvent ratios are v/v; water activity values were calculated using UNIFAC calculator at RT; and times and temperatures are approximate.

In the case of `CC1(NC(=O)c2cccc3nn(-c4cccnc4)cc23)CC1` [Form A, N-(1-methylcyclopropyl)-2-(3-pyridinyl)-2H-indazole 4-carboxamide], the “relative stability of polymorph forms (slurry screen)” value [1] is reported as “more stable than Form B” and the “relative thermodynamic stability of Forms A and B (competitive slurries)” value [2] is reported as “thermodynamically stable form”.
